Laboratory results taken from patent publication US9844536B2, “3-(1H-imidazo[4,5-C]pyridin-2-yl)-1H-pyrazolo[3,4-C]pyridine and therapeutic uses thereof” (Samumed, LLC, priority 2014, dated 2017).

Assays:
Assay type in all cases: cell-based
[1] = test system: primary human mesenchymal stem cells (hMSCs); assay: Chondrogenesis induction screen in primary human mesenchymal stem cells (nodules, Rhodamine B/Nile Red); details: 144 h, 6 days; for EC (100% TGF-beta3 activity): concentration required to induce chondrogenesis equivalent to TGF-β3 (10 ng/mL), read-out: Conc (nM) of 100% TGF-β3 activity
Experimental: The above synthesized compounds were screened using primary human mesenchymal stem cells (hMSCs) to determine their ability to induce chondrogenesis (process by which cartilage is developed).
Primary human mesenchymal stem cells (hMSCs) were purchased from Lonza (Walkersville, Md.) and expanded in Mesenchymal Stem Cell Growth Media (Lonza). Cells between passage 3 and 6 were used for the experiments.
Each compound was dissolved in DMSO as a 10 mM stock and used to prepare compound source plates. Serial dilution (1:3, 6-point dose-response curves from 2700 nM to 10 nM) and compound transfer was performed using the ECHO 550 (Labcyte, Sunnyvale, Calif.) into 96-well clear bottom assay plates (Greiner Bio-One) with appropriate DMSO backfill for a final DMSO concentration of 0.03%. hMSCs were plated at 20,000 cells/well in 250 μL/well Incomplete Chondrogenic Induction Medium (Lonza; DMEM, dexamethasone, ascorbate, insulin-transferrin-selenium [ITS supplement], gentamycin-amphotericin [GA-1000], sodium pyruvate, proline and L-glutamine). TGF-β3 (10 ng/mL) was used as a positive control for differentiation while negative control wells were treated with 75 nL DMSO for normalization and calculating EC50 values. Cells were incubated at 37° C. and 5% CO2 for 6 days. To image chondrogenic nodules, the cells were fixed using 4% formaldehyde (Electron Microscopy Sciences), and stained with 2 μg/mL Rhodamine B (Sigma-Aldrich) and 20 μM Nile Red (Sigma-Aldrich) [Johnson K., et. al, A Stem Cell-Based Approach to Cartilage Repair, Science, (2012), 336(6082), 717-721]. The nodules imaged (4 images per well at 4× magnification) by excitation at 531 nm and emission at 625 nm and quantified using the CellInsight CX5 (Thermo Scientific). Number of nodules in each well was normalized to the average of 3 DMSO treated wells on the same plate using Excel (Microsoft Inc.). The normalized averages (fold change over DMSO) of 3 replicate wells for each compound concentration were calculated. Due to solubility limitations of some of the compounds, curve fitting was incomplete leading to inaccurate EC50 determinations.
Using TGF-03 as a positive control, the concentration of test compounds required to induce equivalent levels of chondrogenesis is reported. In addition, the maximum activity of each compound and the respective dose that each compound reached maximum chondrogenesis activity is reported.

[2] = test system: Wnt pathway (Sp5-Luc reporter, SW480 cells); assay: Sp5-Luc reporter gene screening assay for Wnt activity in SW480 colon carcinoma cells; details: Homo sapiens
Method in brief: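 IC50 values come from variable-slope four-parameter fits of luciferase signal normalized to DMSO wells. Stable Sp5-Luc reporter SW480 colon carcinoma cells were exposed to compounds in a 3-fold dilution series (source plates from 10 mM stock) for forty-two hours at 37 °C.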

LL29 cells = assay: Inhibition of the fibrotic process (αSMA staining) in TGF-β1 treated primary human fibroblasts from IPF patients; details: Fibroblast, 96 h, TGF-β1 20 ng/mL, 4 days, dose-response 10 μM to 1.87 nM, read-out: Inhibition of fibrosis EC50
Method in brief: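 LL29 IPF lung fibroblasts in 1% FBS were stimulated with TGF-β1 (20 ng/mL) and treated 4 days at 37 °C with compound (11 points, 10 μM–1.87 nM, 0.1% DMSO). The % αSMA-positive cells, imaged after excluding SYTOX-positive dead cells, was normalized to TGF-β1/DMSO wells. EC50 came from nonlinear regression over triplicates.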

| IC50 [2] | Structure (SMILES) | EC (100% TGF-beta3 activity) [1] | Emax ([1]; relative to TGF-β3 (10 ng/mL) positive control, read-out: Max. Activity as % TGF-β3 activity) | EC50 (LL29 cells) |
| --- | --- | --- | --- | --- |
| 32.8 nM | Cc1cn(-c2nccc3[nH]c(-c4n[nH]c5cnc(-c6cncc(NC(=O)C(C)(C)C)c6)cc45)nc23)cn1 [Compound 190, N-(5-(3-(4-(4-Methyl-1H-imidazol-1-yl)-1H-imidazo[4,5-c]pyridin-2-yl)-1H-pyrazolo[3,4-c]pyridin-5-yl)pyridin-3-yl)pivalamide] | 71.8 nM | 100% | – |
| 59.9 nM | Cc1ccncc1-c1cc2c(-c3nc4c(-c5ccsc5)nccc4[nH]3)n[nH]c2cn1 [Compound 265, 5-(4-Methylpyridin-3-yl)-3-(4-(thiophen-3-yl)-1H-imidazo[4,5-c]pyridin-2-yl)-1H-pyrazolo[3,4-c]pyridine] | – | – | 157 nM |
| 67.3 nM | CS(=O)(=O)NCc1cc(F)cc(-c2nccc3[nH]c(-c4n[nH]c5cnc(-c6cncc(CNCc7ccccc7)c6)cc45)nc23)c1 [Compound 439, N-(3-(2-(5-(5-((Benzylamino)methyl)pyridin-3-yl)-1H-pyrazolo[3,4-c]pyridin-3-yl)-1H-imidazo[4,5-c]pyridin-4-yl)-5-fluorobenzyl)methanesulfonamide] | – | – | ≤ 9 nM |
| 1920 nM | CC(=O)c1ccc(-c2nccc3[nH]c(-c4n[nH]c5cnc(-c6cncc(NC(=O)CC(C)(C)C)c6)cc45)nc23)s1 [Compound 406, N-(5-(3-(4-(5-Acetylthiophen-2-yl)-1H-imidazo[4,5-c]pyridin-2-yl)-1H-pyrazolo[3,4-c]pyridin-5-yl)pyridin-3-yl)-3,3-dimethylbutanamide] | – | – | ≥ 9990 nM |
| 74.1 nM | Fc1ccc(-c2nccc3[nH]c(-c4n[nH]c5cnc(-c6cncnc6)cc45)nc23)cc1 [Compound 52, 3-(4-(4-Fluorophenyl)-1H-imidazo[4,5-c]pyridin-2-yl)-5-(pyrimidin-5-yl)-1H-pyrazolo[3,4-c]pyridine] | – | – | 44 nM |
| 532 nM | O=C(Nc1cncc(-c2cc3c(-c4nc5cnccc5[nH]4)n[nH]c3cn2)c1)C1CCCCC1 [Compound 256, N-(5-(3-(1H-Imidazo[4,5-c]pyridin-2-yl)-1H-pyrazolo[3,4-c]pyridin-5-yl)pyridin-3-yl)cyclohexanecarboxamide] | – | – | ≥ 9990 nM |
| > 10000 nM | CN(C)Cc1cncc(-c2cc3c(-c4nc5c(N6CCCCC6)nccc5[nH]4)n[nH]c3cn2)c1 [Compound 169, N,N-Dimethyl-1-(5-(3-(4-(piperidin-1-yl)-1H-imidazo[4,5-c]pyridin-2-yl)-1H-pyrazolo[3,4-c]pyridin-5-yl)pyridin-3-yl)methanamine] | – | – | 3110 nM |
| 157 nM | CN(C)Cc1cncc(-c2cc3c(-c4nc5c(-c6cccc(F)c6)nccc5[nH]4)n[nH]c3cn2)c1 [Compound 13, 1-(5-(3-(4-(3-Fluorophenyl)-1H-imidazo[4,5-c]pyridin-2-yl)-1H-pyrazolo[3,4-c]pyridin-5-yl)pyridin-3-yl)-N,N-dimethylmethanamine] | – | – | 1660 nM |
| 342 nM | CN(C)CCNc1cc(F)cc(-c2nccc3[nH]c(-c4n[nH]c5cnc(-c6cncc(CNCC7CCCC7)c6)cc45)nc23)c1 [Compound 466, N^1-(3-(2-(5-(5-(((Cyclopentylmethyl)amino)methyl)pyridin-3-yl)-1H-pyrazolo[3,4-c]pyridin-3-yl)-1H-imidazo[4,5-c]pyridin-4-yl)-5-fluorophenyl)-N2,N2-dimethylethane-1,2-diamine] | – | – | 74 nM |
| 834 nM | CCNCc1cncc(-c2cc3c(-c4nc5c(-c6ccccn6)nccc5[nH]4)n[nH]c3cn2)c1 [Compound 136, N-((5-(3-(4-(Pyridin-2-yl)-1H-imidazo[4,5-c]pyridin-2-yl)-1H-pyrazolo[3,4-c]pyridin-5-yl)pyridin-3-yl)methyl)ethanamine] | – | – | ≤ 9 nM |
| 100 nM | Fc1ccc(-c2nccc3[nH]c(-c4n[nH]c5cnc(-c6cncc(CN7CCCC7)c6)cc45)nc23)s1 [Compound 352, 3-(4-(5-Fluorothiophen-2-yl)-1H-imidazo[4,5-c]pyridin-2-yl)-5-(5-(pyrrolidin-1-ylmethyl)pyridin-3-yl)-1H-pyrazolo[3,4-c]pyridine] | – | – | ≥ 9990 nM |
| 50.9 nM | CC(C)(C)C(=O)Nc1cncc(-c2cc3c(-c4nc5c(-c6ccc(F)cc6)nccc5[nH]4)n[nH]c3cn2)c1 [Compound 34, N-(5-(3-(4-(4-Fluorophenyl)-1H-imidazo[4,5-c]pyridin-2-yl)-1H-pyrazolo[3,4-c]pyridin-5-yl)pyridin-3-yl)pivalamide] | – | – | 515 nM |
| 1080 nM | CC(C)C(=O)Nc1cncc(-c2cc3c(-c4nc5c(N6CCN(C)CC6)nccc5[nH]4)n[nH]c3cn2)c1 [Compound 217] | – | – | ≥ 9990 nM |
| 151 nM | COc1cc(F)cc(-c2nccc3[nH]c(-c4n[nH]c5cnc(-c6cncc(NC(=O)CC(C)C)c6)cc45)nc23)c1 [Compound 1394, N-(5-(3-(4-(3-Fluoro-5-methoxyphenyl)-1H-imidazo[4,5-c]pyridin-2-yl)-1H-pyrazolo[3,4-c]pyridin-5-yl)pyridin-3-yl)-3-methylbutanamide] | – | – | 332 nM |
| > 10000 nM | CCCC(=O)Nc1cncc(-c2cc3c(-c4nc5c(-c6ccncc6)nccc5[nH]4)n[nH]c3cn2)c1 [Compound 121, N-(5-(3-(4-(Pyridin-4-yl)-1H-imidazo[4,5-c]pyridin-2-yl)-1H-pyrazolo[3,4-c]pyridin-5-yl)pyridin-3-yl)butyramide] | – | – | ≥ 9990 nM |
| 266 nM | CC(C)Nc1cncc(-c2cc3c(-c4nc5c(-c6cc(F)cc(NCCN(C)C)c6)nccc5[nH]4)n[nH]c3cn2)c1 [Compound 454, N^1-(3-Fluoro-5-(2-(5-(5-(isopropylamino)pyridin-3-yl)-1H-pyrazolo[3,4-c]pyridin-3-yl)-1H-imidazo[4,5-c]pyridin-4-yl)phenyl)-N2,N2-dimethylethane-1,2-diamine] | – | – | 1620 nM |
| 1.7 nM | c1cncc(-c2cc3c(-c4nc5c(-c6cccnc6)nccc5[nH]4)n[nH]c3cn2)c1 [Compound 82, 5-(Pyridin-3-yl)-3-(4-(pyridin-3-yl)-1H-imidazo[4,5-c]pyridin-2-yl)-1H-pyrazolo[3,4-c]pyridine] | 44.5 nM | – | – |
| 31.7 nM | CC(C)CC(=O)Nc1cncc(-c2cc3c(-c4nc5c(-c6ccc(F)s6)nccc5[nH]4)n[nH]c3cn2)c1 [Compound 340, N-(5-(3-(4-(5-Fluorothiophen-2-yl)-1H-imidazo[4,5-c]pyridin-2-yl)-1H-pyrazolo[3,4-c]pyridin-5-yl)pyridin-3-yl)-3-methylbutanamide] | – | – | 306 nM |
| 203 nM | CCCCC(=O)Nc1cncc(-c2cc3c(-c4nc5c(-c6cc(F)cc(NCCN(C)C)c6)nccc5[nH]4)n[nH]c3cn2)c1 [Compound 460, N-(5-(3-(4-(3-((2-(Dimethylamino)ethyl)amino)-5-fluorophenyl)-1H-imidazo[4,5-c]pyridin-2-yl)-1H-pyrazolo[3,4-c]pyridin-5-yl)pyridin-3-yl)pentanamide] | – | – | ≥ 9990 nM |
| 61 nM | O=C(Nc1cncc(-c2cc3c(-c4nc5c(-c6ccc(F)cc6)nccc5[nH]4)n[nH]c3cn2)c1)C1CCC1 [Compound 46, N-(5-(3-(4-(4-Fluorophenyl)-1H-imidazo[4,5-c]pyridin-2-yl)-1H-pyrazolo[3,4-c]pyridin-5-yl)pyridin-3-yl)cyclobutanecarboxamide] | – | – | ≤ 9 nM |
| 30.8 nM | CS(=O)(=O)NCc1cc(F)cc(-c2nccc3[nH]c(-c4n[nH]c5cnc(-c6cncnc6)cc45)nc23)c1 [Compound 442, N-(3-Fluoro-5-(2-(5-(pyrimidin-5-yl)-1H-pyrazolo[3,4-c]pyridin-3-yl)-1H-imidazo[4,5-c]pyridin-4-yl)benzyl)methanesulfonamide] | – | – | ≤ 9 nM |
